Values after ≈ are worked out from the molar mass of the structure shown.
Columns and labels:
[1] = system: Mycobacterium tuberculosis; test: Antimycobacterial activity against Mycobacterium tuberculosis H37Rv by broth microdilution alamar blue assay; assay type: functional
[2] = Selectivity index, IC50 for Vero cells to MIC for Mycobacterium tuberculosis H37Rv; assay type: functional
[3] = system: Mycobacterium tuberculosis; test: Reduction of Mycobacterium tuberculosis H37Rv growth in mouse peritoneal macrophage monolayers after 7 days; assay type: functional; conditions: 168 h
Vero = test: Cytotoxicity against Vero cells; assay type: cell-based; conditions: Chlorocebus sabaeus

SMILES | MIC [1] | Selectivity index [2] | EC90 [3] | EC99 [3] | IC50 (Vero)
CC(C)CCN(C(=O)c1cccnc1)C(C(=O)NCc1cccnc1)c1ccccc1 (centres undefined) | 3.13 µg/mL (≈ 7.51 µM) | 16.1 | > 12.5 µg/mL | > 12.5 µg/mL | 50.3 µg/mL (≈ 121 µM)
CCCCC(C(=O)NCc1ccccc1)N(C(=O)c1cnccn1)C1CCCCC1 (centres undefined) | 3.13 µg/mL (≈ 7.66 µM) | 9.9 |  |  | 27.9 µg/mL (≈ 68.3 µM)
C=CCNC(=O)C1(OC(=O)c2cccnc2)CCN(Cc2ccccc2)CC1 | 6.25 µg/mL (≈ 16.5 µM) | >10 |  |  | > 62.5 µg/mL
C=CCNC(=O)C(CCCC)N(CC=C)C(=O)c1cccnc1.Cl (centres undefined) | 3.13 µg/mL | 9.9 |  |  | 31.1 µg/mL

Reference: ChEMBL document CHEMBL1139796, “Novel anti-tuberculosis agents from MCR libraries” (Bioorg Med Chem Lett, 2007)
